Measured values from patent US12319695B2, “Sulfonamide derivative with fused pyrimidine skeleton, having epidermal growth factor receptor mutation inhibitory effect” (HANMI PHARM. CO., LTD., priority 2018, dated 2025).

How the values were obtained:
[1] = system: Ba/F3 EGFR del19/T790M/C797S cells; assay: Ba/F3 EGFR del19/T790M/C797S cell growth inhibition test (CellTiter-Glo, 72 hours); assay type: cell-based; conditions: Ba/F3 cell line overexpressing EGFR del19/T790M/C797S, 72 hours, CellTiter-Glo; read-out: Ba/F3 EGFR del19/T790M/C797S cells, GI50;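 also: compounds tested in tenfold steps from 10 µM down to 0.1 nM, with luminescence read on a microplate reader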
Description: Specifically, the cell line stored in a liquid nitrogen tank was taken out, rapidly dissolved at 37° C., and thereafter centrifuged to remove the cryopreservation medium. The recovered cell pellets were well mixed in a culture medium, put into a culture flask, and passaged under conditions of 37° C. and 5% carbon dioxide to stabilize the cells to the logarithmic growth phase. Thereafter, cells were taken from the flask, centrifuged to remove the culture medium, washed with Dulbecco's phosphate buffered saline (DPBS), and then centrifuged again to remove DPBS, and then diluted with a culture medium to have 1×10^5 cells/ml. The diluted cells were dispensed into a 96-well plate at 100 μl per well. […] The DMSO solution containing each compound was diluted with a culture medium to a concentration of 30 μM, and then tenfold serial dilution was used to prepare a solution diluted upto 0.3 nM (in order to reach a final DMSO concentration of 1% or less).
50 μl of a test solution of each compound was added each time to the 96-well plate in which the cells were dispensed, thus reaching a final concentration of 10 μM to 0.1 nM in 150 μl per well. The cells treated with the test solution were cultured under conditions of 37° C. and 5% carbon dioxide for 72 hours. After the 96-well plate in which the cells were cultured was acclimated to room temperature for 30 minutes, CellTiter-Glo® Luminescent Cell Assay Reagent (CTG, Promega) was dispensed at 50 μl per well. After stabilizing luminescence signals for 10 minutes, the luminescence intensity was measured with a microplate reader.

[2] = system: PC9 EGFR del19/T790M/C797S cells; assay: PC9 EGFR del19/T790M/C797S cell growth inhibition test (CellTiter-Glo, 72 hours); assay type: cell-based; conditions: Homo sapiens, PC-9, PC9 cell line overexpressing EGFR del19/T790M/C797S
Description: For cell growth conditions, an RPMI Medium 1640 (1×) containing 10% FBS and 1% penicillin/straptomycin (Gibco BRL) was used.
Specifically, the cell line stored in a liquid nitrogen tank was taken out, rapidly dissolved at 37° C., and thereafter centrifuged to remove the cryopreservation medium. The recovered cell pellets were well mixed in a culture medium, put into a culture flask, and passaged under conditions of 37° C. and 5% carbon dioxide to stabilize the cells to logarithmic cell growth phase. Thereafter, cells were taken from the flask, centrifuged to remove the culture medium, washed with Dulbecco's phosphate buffered saline (DPBS), and then centrifuged again to remove DPBS, and then diluted with a culture medium to have 1×10^5 cells/ml. The diluted cells were dispensed into a 96-well plate at 100 μl per well. The compounds prepared in the above examples were each dissolved in 99.5% dimethylsulfoxide (hereinafter, DMSO, cell culture grade) to a concentration of 10 mM. The DMSO solution containing each compound was diluted with a culture medium to a concentration of 30 μM, and then tenfold serial dilution was used to prepare a solution diluted upto 0.3 nM (in order to reach a final DMSO concentration of 1% or less).
The cells treated with the test solution were cultured under conditions of 37° C. and 5% carbon dioxide for 72 hours. After the 96-well plate in which the cells were cultured was acclimated to room temperature for 30 minutes, CellTiter-Glo® Luminescent Cell Assay Reagent (CTG, Promega) was dispensed at 50 μl per well. After stabilizing luminescence signals for 10 minutes, the luminescence intensity was measured with a microplate reader.
Based on the measured value, a […] value of each compound, which is the concentration at which cell growth is inhibited by 50%, was calculated with respect to 100% of the value obtained by subtracting the initial cell density value of a well not treated with a test material from the final cell density value thereof. The GI50 value of each compound was calculated using nonlinear regression of GraphPad Prism; log[inhibitor] vs. normalized response analysis.

EGFR WT = molecular target: T1, EGFR WT (Homo sapiens, UniProt P00533); assay: EGFR enzyme inhibitory activity evaluation (Z'-LYTE kinase assay), WT; assay type: biochemical
T1 construct: purchased Thermo Fisher Scientific Inc
T1 sequence (P00533 25-1210): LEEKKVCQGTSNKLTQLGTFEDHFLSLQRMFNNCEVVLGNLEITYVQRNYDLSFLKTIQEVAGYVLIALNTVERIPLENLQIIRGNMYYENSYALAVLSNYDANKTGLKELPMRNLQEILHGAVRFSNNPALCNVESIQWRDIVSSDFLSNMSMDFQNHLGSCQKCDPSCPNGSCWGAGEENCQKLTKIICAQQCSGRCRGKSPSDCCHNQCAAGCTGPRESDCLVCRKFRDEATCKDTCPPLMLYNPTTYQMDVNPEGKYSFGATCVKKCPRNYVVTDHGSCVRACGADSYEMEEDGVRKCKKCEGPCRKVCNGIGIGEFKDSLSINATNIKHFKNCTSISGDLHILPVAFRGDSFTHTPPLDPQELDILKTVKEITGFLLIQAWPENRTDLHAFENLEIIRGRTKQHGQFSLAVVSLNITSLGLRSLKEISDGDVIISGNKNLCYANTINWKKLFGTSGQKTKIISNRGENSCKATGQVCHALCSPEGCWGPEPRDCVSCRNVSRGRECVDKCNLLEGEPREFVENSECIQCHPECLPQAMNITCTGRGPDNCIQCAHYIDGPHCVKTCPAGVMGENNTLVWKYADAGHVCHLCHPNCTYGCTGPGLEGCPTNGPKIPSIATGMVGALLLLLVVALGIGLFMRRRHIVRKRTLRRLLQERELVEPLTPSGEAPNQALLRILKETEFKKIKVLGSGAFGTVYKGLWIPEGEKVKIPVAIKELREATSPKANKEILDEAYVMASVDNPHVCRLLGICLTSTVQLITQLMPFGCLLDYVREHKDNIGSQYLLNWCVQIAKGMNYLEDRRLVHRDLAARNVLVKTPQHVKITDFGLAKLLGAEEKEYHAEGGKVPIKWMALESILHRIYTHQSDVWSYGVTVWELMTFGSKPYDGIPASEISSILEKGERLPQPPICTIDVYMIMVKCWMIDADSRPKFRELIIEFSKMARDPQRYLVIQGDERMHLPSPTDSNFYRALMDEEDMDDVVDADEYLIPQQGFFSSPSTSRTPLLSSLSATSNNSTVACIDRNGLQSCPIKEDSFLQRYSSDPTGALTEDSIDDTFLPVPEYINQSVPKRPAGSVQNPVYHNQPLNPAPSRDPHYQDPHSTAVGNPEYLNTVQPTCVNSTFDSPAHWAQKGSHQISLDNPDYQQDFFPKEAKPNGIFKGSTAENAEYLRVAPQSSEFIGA
Description: (§1) For this, a Z′-LYTE kinase assay kit (ThermoFisher Scientific, PV3191) was used, and the kinases used were purchased from Thermo Fisher Scientific Inc. A simple test method is summarized as follows.
(§2) Each kinase was diluted to a concentration of 7-45 ng/assay using a kinase buffer (50 mM HEPES (pH 7.5), 10 mM MgCl2, 4 mM MnCl2, 2 mM DTT, 1 mM EGTA, 0.01% BRIJ-35, or 50 mM HEPES (pH 6.5), 10 mM MgCl2, 1 mM EGTA, 0.01% BRIJ-35, 0.02% NaN3). The test was performed on 384 well plates (well polystyrene flat-bottomed plates). First, after 5 μl of a diluted compound solution was added, a protein substrate at a concentration as specified in the kit, 10 μl of a kinase mixed solution, and 5 μl of a 10-100 μM ATP solution were added to the sample and reacted at room temperature for 60 minutes in a stirrer. Thereafter, 10 μl of a coloring solution was added each to cause a fluorescence reaction of the peptide substrate for 60 minutes, and 10 μl of a stopping solution was added each to terminate the reaction.

EGFR T790M/L858R = molecular target: T2, EGFR T790M/L858R (Homo sapiens, UniProt P00533, L858R/T790M); assay: EGFR enzyme inhibitory activity evaluation (Z'-LYTE kinase assay), T790M/L858R; assay type: biochemical
T2 construct: purchased Thermo Fisher Scientific Inc
T2 sequence (P00533 25-1210 T790M/L858R): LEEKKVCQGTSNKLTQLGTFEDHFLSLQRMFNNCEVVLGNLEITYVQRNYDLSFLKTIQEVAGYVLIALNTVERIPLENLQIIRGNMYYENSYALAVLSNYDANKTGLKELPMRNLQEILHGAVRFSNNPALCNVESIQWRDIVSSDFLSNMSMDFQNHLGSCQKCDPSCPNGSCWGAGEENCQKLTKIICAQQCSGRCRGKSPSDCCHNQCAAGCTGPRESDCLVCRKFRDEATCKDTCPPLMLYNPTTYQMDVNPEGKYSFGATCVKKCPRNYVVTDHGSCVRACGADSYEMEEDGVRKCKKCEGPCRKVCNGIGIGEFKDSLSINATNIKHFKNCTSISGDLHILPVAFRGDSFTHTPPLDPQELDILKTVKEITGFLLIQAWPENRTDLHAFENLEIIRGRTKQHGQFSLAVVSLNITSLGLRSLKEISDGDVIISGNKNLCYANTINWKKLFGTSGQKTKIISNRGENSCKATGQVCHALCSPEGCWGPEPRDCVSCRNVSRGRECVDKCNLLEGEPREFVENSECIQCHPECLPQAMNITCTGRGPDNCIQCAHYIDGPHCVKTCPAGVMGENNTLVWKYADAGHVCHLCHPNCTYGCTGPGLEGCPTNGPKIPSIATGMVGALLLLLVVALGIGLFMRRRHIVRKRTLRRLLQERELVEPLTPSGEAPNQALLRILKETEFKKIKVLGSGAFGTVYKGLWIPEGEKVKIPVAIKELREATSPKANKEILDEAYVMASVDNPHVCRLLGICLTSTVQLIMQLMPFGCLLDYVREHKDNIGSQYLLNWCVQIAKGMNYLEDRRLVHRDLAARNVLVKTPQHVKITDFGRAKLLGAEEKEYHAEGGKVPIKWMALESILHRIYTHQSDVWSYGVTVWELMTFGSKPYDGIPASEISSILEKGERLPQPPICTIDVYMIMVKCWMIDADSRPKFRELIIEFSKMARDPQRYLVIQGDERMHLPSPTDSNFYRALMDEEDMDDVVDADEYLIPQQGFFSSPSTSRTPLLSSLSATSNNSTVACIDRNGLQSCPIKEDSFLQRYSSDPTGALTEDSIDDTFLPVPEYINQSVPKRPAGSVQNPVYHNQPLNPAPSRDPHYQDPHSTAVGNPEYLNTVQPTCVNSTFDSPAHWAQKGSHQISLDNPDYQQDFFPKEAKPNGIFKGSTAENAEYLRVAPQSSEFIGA
Description: as §1, §2

EGFR L858R/T790M/C797S = molecular target: T3, EGFR L858R/T790M/C797S (Homo sapiens, UniProt P00533, C797S/L858R/T790M); assay: EGFR enzyme inhibitory activity evaluation (Z'-LYTE kinase assay), L858R/T790M/C797S; assay type: biochemical
T3 construct: purchased Thermo Fisher Scientific Inc
T3 sequence (P00533 25-1210 T790M/C797S/L858R): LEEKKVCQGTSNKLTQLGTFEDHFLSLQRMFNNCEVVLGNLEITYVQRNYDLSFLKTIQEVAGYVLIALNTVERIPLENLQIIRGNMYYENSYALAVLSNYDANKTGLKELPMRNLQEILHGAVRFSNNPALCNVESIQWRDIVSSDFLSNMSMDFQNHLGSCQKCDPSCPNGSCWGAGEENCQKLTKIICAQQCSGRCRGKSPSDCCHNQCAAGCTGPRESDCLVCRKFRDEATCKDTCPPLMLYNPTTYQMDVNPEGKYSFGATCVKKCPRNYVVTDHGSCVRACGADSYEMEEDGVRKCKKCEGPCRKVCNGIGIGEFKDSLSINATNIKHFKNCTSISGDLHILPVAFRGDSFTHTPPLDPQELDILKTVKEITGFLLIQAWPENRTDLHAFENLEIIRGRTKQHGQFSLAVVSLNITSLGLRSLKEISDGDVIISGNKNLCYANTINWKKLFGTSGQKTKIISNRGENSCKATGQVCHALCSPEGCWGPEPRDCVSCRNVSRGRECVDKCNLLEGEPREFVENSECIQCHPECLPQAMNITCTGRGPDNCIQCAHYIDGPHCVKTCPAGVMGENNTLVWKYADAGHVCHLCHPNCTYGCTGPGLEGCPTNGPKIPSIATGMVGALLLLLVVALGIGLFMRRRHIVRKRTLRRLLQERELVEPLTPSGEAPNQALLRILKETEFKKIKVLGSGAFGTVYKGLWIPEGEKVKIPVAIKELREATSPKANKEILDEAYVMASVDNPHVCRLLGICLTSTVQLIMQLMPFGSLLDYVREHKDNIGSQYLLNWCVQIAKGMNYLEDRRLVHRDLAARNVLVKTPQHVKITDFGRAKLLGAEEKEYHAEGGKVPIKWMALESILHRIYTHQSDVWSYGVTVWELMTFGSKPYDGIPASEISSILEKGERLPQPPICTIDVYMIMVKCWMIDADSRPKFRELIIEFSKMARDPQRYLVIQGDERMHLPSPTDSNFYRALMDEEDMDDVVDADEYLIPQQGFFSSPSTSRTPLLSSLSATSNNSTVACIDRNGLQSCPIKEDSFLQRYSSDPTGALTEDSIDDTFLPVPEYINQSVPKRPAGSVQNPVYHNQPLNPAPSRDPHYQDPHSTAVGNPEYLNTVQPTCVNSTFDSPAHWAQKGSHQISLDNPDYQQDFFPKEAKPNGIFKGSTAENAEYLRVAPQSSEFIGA
Description: as §1, §2

| SMILES | GI50 [1] | GI50 [2] | IC50 (EGFR WT) | IC50 (EGFR T790M/L858R) | IC50 (EGFR L858R/T790M/C797S) |
| --- | --- | --- | --- | --- | --- |
| CN(c1ccccc1Nc1nc(Nc2ccc(N3CCC(N4CCN(C5CC5)CC4)CC3)c(F)c2)nc2[nH]ccc12)S(C)(=O)=O [Example 17, N-(2-((2-((3-fluoro-4-(4-(4-cyclopropylpiperazin-1-yl)piperidin-1-yl)phenyl)amino)-7H-pyrrolo[2,3-d]pyrimidine-4-yl)amino)phenyl)-N-methylmethanesulfonamide] |  | 311 nM |  |  |  |
| CCN1CCN(c2c(F)cc(Nc3nc(Nc4ccccc4N(C)S(C)(=O)=O)c4cc[nH]c4n3)cc2F)CC1 [Example 26, N-(2-((2-((4-(4-ethylpiperazin-1-yl)-3,5-difluorophenyl)amino)-7H-pyrrolo[2,3-d]pyrimidine-4-yl)amino)phenyl)-N-methylmethanesulfonamide] |  | 369 nM |  |  |  |
| CN1CC2(C1)CN(c1ccc(Nc3nc(Nc4ccccc4N(C)S(C)(=O)=O)c4cc[nH]c4n3)cc1F)C2 [Example 36, N-(2-((2-((3-fluoro-4-(6-methyl-2,6-diazaspiro[3.3]heptan-2-yl)phenyl)amino)-7H-pyrrolo[2,3-d]pyrimidine-4-yl)amino)phenyl)-N-methylmethanesulfonamide] | 20 nM |  | 2180 nM | 12 nM | 13 nM |
| CN1CCN(c2ccc(Nc3nc(Nc4ccccc4NS(C)(=O)=O)c4cc[nH]c4n3)cc2F)CC1 [Example 42, N-(2-((2-((3-fluoro-4-(4-methylpiperazin-1-yl)phenyl)amino)-7H-pyrrolo[2,3-d]pyrimidine-4-yl)amino)phenyl)methanesulfonamide] | 123 nM | 951 nM |  |  |  |
| CCN1CCN(c2ccc(Nc3nc(Nc4ccccc4NS(C)(=O)=O)c4cc[nH]c4n3)cc2F)CC1 [Example 49, N-(2-((2-((4-(4-ethylpiperazin-1-yl)-3-fluorophenyl)amino)-7H-pyrrolo[2,3-d]pyrimidine-4-yl)amino)phenyl)methanesulfonamide] |  | 858 nM |  |  |  |
| CCN1CCN(C2CCN(c3ccc(Nc4nc(Nc5ccccc5NS(C)(=O)=O)c5cc[nH]c5n4)cc3F)CC2)CC1 [Example 53, N-(2-((2-((4-(4-(4-ethylpiperazin-1-yl)piperidin-1-yl)-3-fluorophenyl)amino)-7H-pyrrolo[2,3-d]pyrimidine-4-yl)amino)phenyl)methanesulfonamide] | 7 nM | 698 nM |  |  |  |
| CCN1CCN(C2CCN(c3ccc(Nc4nc(Nc5ccccc5N(C)S(=O)(=O)CC)c5cc[nH]c5n4)cc3F)CC2)CC1 [Example 54, N-(2-((2-((4-(4-(4-ethylpiperazin-1-yl)piperidin-1-yl)-3-fluorophenyl)amino)-7H-pyrrolo[2,3-d]pyrimidine-4-yl)amino)phenyl)-N-methylethanesulfonamide] |  | 530 nM |  |  |  |
| CCN1CCC2(CCN(c3ccc(Nc4nc(Nc5ccccc5N(C)S(=O)(=O)CC)c5cc[nH]c5n4)cc3F)CC2)C1 [Example 56, N-(2-((2-((4-(2-ethyl-2,8-diazaspiro[4.5]decan-8-yl)-3-fluorophenyl)amino)-7H-pyrrolo[2,3-d]pyrimidine-4-yl)amino)phenyl)-N-methylethanesulfonamide] |  | 564 nM |  |  |  |
| CN1CCN(C2CCN(c3ccc(Nc4nc(Nc5ccccc5N(C)S(C)(=O)=O)c5ccn(C)c5n4)cc3F)CC2)CC1 [Example 65, N-(2-((2-((3-fluoro-4-(4-(4-methylpiperazin-1-yl)piperidin-1-yl)phenyl)amino)-7-methyl-7H-pyrrolo[2,3-d]pyrimidine-4-yl)amino)phenyl)-N-methylmethanesulfonamide] |  | 3380 nM |  |  |  |

Further molecules by falling GI50 [2], results first:

| GI50 [1] | GI50 [2] | IC50 (EGFR WT) | IC50 (EGFR T790M/L858R) | IC50 (EGFR L858R/T790M/C797S) | SMILES |
| --- | --- | --- | --- | --- | --- |
| 11 nM | 267 nM |  |  |  | CN1CCN(C2CCN(c3ccc(Nc4nc(Nc5ccccc5N(C)S(C)(=O)=O)c5cc[nH]c5n4)cc3F)CC2)CC1 [Example 13, N-(2-((2-((3-fluoro-4-(4-(4-methylpiperazin-1-yl)piperidin-1-yl)phenyl)amino)-7H-pyrrolo[2,3-d]pyrimidine-4-yl)amino)phenyl)-N-methylmethanesulfonamide] |
| 10 nM | 201 nM |  |  |  | CCN1CCN(c2ccc(Nc3nc(Nc4ccccc4N(C)S(C)(=O)=O)c4cc[nH]c4n3)cc2F)CC1 [Example 8, N-(2-((2-((3-fluoro-4-(4-ethylpiperazin-1-yl)phenyl)amino)-7H-pyrrolo[2,3-d]pyrimidine-4-yl)amino)phenyl)-N-methylmethanesulfonamide] |
|  | 160 nM | 1530 nM | 2.7 nM | 4 nM | CCCN1CCN(C2CCN(c3ccc(Nc4nc(Nc5ccccc5N(C)S(C)(=O)=O)c5cc[nH]c5n4)cc3F)CC2)CC1 [Example 16, N-(2-((2-((3-fluoro-4-(4-(4-propylpiperazin-1-yl)piperidin-1-yl)phenyl)amino)-7H-pyrrolo[2,3-d]pyrimidine-4-yl)amino)phenyl)-N-methylmethanesulfonamide] |
|  | 131 nM |  |  |  | CC(C)N1CCN(C2CCN(c3ccc(Nc4nc(Nc5ccccc5N(C)S(C)(=O)=O)c5cc[nH]c5n4)cc3F)CC2)CC1 [Example 15, N-(2-((2-((3-fluoro-4-(4-(4-isopropylpiperazin-1-yl)piperidin-1-yl)phenyl)amino)-7H-pyrrolo[2,3-d]pyrimidine-4-yl)amino)phenyl)-N-methylmethanesulfonamide] |
| 15 nM | 126 nM | 4490 nM | 2.9 nM | 4 nM | CCN1CCN(C2CCN(c3ccc(Nc4nc(Nc5ccccc5N(C)S(C)(=O)=O)c5cc[nH]c5n4)cc3F)CC2)CC1 [Example 14, N-(2-((2-((3-fluoro-4-(4-(4-ethylpiperazin-1-yl)piperidin-1-yl)phenyl)amino)-7H-pyrrolo[2,3-d]pyrimidine-4-yl)amino)phenyl)-N-methylmethanesulfonamide] |
